{
  "source": "the kinase profiling compilation of Christmann-Franck et al. (2016)",
  "experiment_in_all_cases": "KINOMEscan competition binding",
  "key": {"[1]": {"test_system": "ABL1 (human), P00519 [Y253F]", "details": "compound 10.0 µM"}, "ADCK4 (human)": {"biological_target": "ADCK4 (human) (UniProt Q96D53)", "details": "compound 10.0 µM"}, "CAMK4 (human)": {"biological_target": "CAMK4 (human) (UniProt Q16566)", "details": "compound 10.0 µM"}, "CDC42BPA (human)": {"biological_target": "CDC42BPA (human) (UniProt Q5VT25)", "details": "compound 10.0 µM"}, "CDK11B (human)": {"biological_target": "CDK11B (human) (UniProt P21127)", "details": "compound 10.0 µM"}, "CDK18 (human)": {"biological_target": "CDK18 (human) (UniProt Q07002)", "details": "compound 10.0 µM"}, "CDK2 (human)": {"biological_target": "CDK2 (human) (UniProt P24941)", "details": "compound 10.0 µM"}, "CHEK1 (human)": {"biological_target": "CHEK1 (human) (UniProt O14757)", "details": "compound 10.0 µM"}, "CSNK1A1L (human)": {"biological_target": "CSNK1A1L (human) (UniProt Q8N752)", "sequence (Q8N752 whole entry, looked up)": "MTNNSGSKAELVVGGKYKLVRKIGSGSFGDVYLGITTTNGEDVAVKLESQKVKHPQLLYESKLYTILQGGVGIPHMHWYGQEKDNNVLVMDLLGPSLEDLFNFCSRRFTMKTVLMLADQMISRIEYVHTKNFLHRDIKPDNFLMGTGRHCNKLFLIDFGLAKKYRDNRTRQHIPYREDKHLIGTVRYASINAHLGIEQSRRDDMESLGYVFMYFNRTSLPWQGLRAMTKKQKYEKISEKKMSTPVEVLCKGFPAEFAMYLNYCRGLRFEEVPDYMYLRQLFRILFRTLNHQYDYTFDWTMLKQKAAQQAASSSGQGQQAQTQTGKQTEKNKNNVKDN", "details": "compound 10.0 µM"}, "CSNK1D (human)": {"biological_target": "CSNK1D (human) (UniProt P48730)", "details": "compound 10.0 µM"}, "DAPK1 (human)": {"biological_target": "DAPK1 (human) (UniProt P53355)", "sequence (P53355 whole entry, looked up)": "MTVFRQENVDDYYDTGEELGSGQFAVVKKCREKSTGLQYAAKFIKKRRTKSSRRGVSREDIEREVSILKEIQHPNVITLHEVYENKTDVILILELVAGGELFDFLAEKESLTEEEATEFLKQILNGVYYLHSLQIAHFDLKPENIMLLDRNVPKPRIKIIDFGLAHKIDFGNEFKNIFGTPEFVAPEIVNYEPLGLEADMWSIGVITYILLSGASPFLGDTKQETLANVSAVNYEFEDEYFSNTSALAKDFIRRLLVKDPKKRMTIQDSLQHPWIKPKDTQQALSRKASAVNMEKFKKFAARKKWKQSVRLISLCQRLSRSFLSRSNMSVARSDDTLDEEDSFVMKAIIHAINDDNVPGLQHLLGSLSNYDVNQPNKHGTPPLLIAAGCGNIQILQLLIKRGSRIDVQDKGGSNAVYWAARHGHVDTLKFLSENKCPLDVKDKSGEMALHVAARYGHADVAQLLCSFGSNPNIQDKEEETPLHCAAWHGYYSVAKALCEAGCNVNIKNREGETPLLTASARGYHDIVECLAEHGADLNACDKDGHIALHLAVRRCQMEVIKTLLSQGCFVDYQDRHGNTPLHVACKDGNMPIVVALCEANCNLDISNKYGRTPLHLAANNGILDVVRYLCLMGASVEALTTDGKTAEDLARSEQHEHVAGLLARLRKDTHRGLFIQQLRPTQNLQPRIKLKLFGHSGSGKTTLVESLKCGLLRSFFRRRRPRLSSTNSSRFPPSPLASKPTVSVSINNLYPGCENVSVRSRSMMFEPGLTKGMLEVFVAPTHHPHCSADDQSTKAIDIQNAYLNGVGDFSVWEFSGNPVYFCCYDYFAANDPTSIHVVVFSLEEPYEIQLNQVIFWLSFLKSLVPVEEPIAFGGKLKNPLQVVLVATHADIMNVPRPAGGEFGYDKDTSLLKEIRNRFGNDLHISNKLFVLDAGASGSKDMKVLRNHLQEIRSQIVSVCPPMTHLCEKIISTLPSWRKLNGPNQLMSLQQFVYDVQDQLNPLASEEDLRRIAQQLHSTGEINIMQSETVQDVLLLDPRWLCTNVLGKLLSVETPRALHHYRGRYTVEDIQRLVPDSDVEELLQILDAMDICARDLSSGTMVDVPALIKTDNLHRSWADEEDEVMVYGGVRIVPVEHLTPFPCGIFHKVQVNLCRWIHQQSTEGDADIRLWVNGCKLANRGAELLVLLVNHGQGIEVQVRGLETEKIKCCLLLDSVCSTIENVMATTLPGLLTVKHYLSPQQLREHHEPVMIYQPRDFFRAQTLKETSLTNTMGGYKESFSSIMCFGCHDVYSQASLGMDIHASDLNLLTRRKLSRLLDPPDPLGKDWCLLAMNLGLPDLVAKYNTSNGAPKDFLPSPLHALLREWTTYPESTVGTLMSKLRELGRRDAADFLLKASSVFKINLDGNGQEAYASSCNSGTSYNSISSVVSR", "details": "compound 10.0 µM"}, "[2]": {"test_system": "EGFR (human), P00533 [746-750 del]", "sequence (P00533 whole entry, looked up, stated change not applied)": "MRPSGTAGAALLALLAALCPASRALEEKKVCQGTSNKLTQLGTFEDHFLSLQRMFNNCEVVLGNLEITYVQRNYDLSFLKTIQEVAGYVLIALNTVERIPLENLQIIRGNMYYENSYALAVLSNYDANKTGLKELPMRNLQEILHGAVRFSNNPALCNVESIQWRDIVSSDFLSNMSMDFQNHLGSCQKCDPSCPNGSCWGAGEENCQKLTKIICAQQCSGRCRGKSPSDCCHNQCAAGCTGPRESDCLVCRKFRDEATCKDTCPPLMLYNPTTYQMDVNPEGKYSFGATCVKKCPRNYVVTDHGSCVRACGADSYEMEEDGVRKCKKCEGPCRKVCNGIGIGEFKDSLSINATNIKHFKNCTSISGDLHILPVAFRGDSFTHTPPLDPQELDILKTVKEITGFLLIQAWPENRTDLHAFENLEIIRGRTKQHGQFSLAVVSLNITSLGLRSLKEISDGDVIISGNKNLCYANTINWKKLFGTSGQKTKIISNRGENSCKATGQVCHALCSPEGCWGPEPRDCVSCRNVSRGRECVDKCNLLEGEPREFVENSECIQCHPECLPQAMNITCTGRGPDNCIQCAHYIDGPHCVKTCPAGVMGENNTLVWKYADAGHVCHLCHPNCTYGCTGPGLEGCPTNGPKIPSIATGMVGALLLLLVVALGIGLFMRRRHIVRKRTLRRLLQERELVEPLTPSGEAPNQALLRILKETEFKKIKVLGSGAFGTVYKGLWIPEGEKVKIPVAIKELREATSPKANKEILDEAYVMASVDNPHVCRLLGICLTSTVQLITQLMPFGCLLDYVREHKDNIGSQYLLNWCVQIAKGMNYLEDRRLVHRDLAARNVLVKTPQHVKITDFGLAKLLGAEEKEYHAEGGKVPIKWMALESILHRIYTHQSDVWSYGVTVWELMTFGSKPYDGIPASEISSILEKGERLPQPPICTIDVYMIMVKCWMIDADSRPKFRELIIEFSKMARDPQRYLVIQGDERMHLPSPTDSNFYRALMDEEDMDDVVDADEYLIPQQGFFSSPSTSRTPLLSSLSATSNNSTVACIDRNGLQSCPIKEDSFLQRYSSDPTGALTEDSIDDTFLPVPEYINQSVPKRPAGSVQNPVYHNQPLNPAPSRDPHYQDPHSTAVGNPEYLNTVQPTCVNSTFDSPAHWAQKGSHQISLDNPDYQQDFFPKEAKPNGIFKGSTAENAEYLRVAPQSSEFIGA", "details": "compound 10.0 µM"}, "HUNK (human)": {"biological_target": "HUNK (human) (UniProt P57058)", "details": "compound 10.0 µM"}, "IKBKB (human)": {"biological_target": "IKBKB (human) (UniProt O14920)", "details": "compound 10.0 µM"}, "INSR (human)": {"biological_target": "INSR (human) (UniProt P06213)", "details": "compound 10.0 µM"}, "IRAK1 (human)": {"biological_target": "IRAK1 (human) (UniProt P51617)", "details": "compound 10.0 µM"}, "MAP3K10 (human)": {"biological_target": "MAP3K10 (human) (UniProt Q02779)", "details": "compound 10.0 µM"}, "MAP3K2 (human)": {"biological_target": "MAP3K2 (human) (UniProt Q9Y2U5)", "details": "compound 10.0 µM"}, "MAP4K2 (human)": {"biological_target": "MAP4K2 (human) (UniProt Q12851)", "details": "compound 10.0 µM"}, "MAPK9 (human)": {"biological_target": "MAPK9 (human) (UniProt P45984)", "sequence (P45984 whole entry, looked up)": "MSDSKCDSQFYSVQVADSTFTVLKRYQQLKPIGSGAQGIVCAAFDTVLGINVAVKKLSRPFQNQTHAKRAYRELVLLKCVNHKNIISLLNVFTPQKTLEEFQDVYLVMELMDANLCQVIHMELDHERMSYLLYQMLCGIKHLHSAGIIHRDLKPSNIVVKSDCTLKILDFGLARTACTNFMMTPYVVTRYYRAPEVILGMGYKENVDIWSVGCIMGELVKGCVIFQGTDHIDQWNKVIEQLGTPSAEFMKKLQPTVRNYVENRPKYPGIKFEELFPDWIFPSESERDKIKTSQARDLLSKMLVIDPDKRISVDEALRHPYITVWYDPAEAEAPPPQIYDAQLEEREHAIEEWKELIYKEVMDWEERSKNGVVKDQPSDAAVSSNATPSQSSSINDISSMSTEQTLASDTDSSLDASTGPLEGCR"}, "MAPKAPK5 (human)": {"biological_target": "MAPKAPK5 (human) (UniProt Q8IW41)", "details": "compound 10.0 µM"}, "MAST1 (human)": {"biological_target": "MAST1 (human) (UniProt Q9Y2H9)", "details": "compound 10.0 µM"}, "MINK1 (human)": {"biological_target": "MINK1 (human) (UniProt Q8N4C8)", "details": "compound 10.0 µM"}, "MYO3B (human)": {"biological_target": "MYO3B (human) (UniProt Q8WXR4)", "sequence (Q8WXR4 whole entry, looked up)": "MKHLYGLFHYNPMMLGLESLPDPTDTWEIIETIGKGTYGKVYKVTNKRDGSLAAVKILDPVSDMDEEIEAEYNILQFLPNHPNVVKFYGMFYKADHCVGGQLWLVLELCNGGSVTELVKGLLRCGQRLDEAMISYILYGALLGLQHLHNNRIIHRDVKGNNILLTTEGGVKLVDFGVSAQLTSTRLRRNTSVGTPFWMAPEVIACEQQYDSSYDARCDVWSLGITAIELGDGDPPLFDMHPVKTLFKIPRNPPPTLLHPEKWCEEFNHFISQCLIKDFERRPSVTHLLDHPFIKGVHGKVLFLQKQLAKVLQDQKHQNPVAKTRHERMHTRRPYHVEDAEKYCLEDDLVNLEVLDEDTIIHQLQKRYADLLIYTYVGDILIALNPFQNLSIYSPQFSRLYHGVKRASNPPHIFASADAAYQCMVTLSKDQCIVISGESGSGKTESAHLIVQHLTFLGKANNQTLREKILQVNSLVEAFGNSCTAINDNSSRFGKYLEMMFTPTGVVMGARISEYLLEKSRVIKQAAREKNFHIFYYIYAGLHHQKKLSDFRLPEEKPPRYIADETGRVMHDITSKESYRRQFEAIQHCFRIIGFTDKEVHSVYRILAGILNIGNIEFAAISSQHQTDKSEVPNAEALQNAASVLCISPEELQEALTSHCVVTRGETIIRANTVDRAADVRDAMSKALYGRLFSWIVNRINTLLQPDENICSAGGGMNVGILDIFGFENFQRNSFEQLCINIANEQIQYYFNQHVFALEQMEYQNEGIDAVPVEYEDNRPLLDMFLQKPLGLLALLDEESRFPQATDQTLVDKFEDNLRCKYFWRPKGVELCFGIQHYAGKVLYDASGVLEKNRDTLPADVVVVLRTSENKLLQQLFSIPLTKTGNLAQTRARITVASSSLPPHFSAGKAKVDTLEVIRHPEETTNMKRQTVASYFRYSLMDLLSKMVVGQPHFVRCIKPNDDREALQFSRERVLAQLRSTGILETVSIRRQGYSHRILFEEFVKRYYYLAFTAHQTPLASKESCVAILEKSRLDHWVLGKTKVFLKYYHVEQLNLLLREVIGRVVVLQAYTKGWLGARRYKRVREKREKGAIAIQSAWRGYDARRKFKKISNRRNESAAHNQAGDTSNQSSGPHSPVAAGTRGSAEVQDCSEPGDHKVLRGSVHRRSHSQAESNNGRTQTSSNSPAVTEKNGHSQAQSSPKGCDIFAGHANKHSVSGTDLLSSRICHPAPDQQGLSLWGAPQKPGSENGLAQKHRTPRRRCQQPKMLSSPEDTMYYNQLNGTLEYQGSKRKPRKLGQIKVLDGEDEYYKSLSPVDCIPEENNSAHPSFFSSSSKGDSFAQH", "details": "compound 10.0 µM"}, "NEK2 (human)": {"biological_target": "NEK2 (human) (UniProt P51955)", "details": "compound 10.0 µM"}, "PDPK1 (human)": {"biological_target": "PDPK1 (human) (UniProt O15530)", "details": "compound 10.0 µM"}, "[3]": {"test_system": "PIK3CA (human), P42336 [H1047Y]", "details": "compound 10.0 µM"}, "[4]": {"test_system": "PIK3CA (human), P42336 [M1043I]", "details": "compound 10.0 µM"}, "PKMYT1 (human)": {"biological_target": "PKMYT1 (human) (UniProt Q99640)", "details": "compound 10.0 µM"}, "PLK4 (human)": {"biological_target": "PLK4 (human) (UniProt O00444)", "details": "compound 10.0 µM"}, "RIOK1 (human)": {"biological_target": "RIOK1 (human) (UniProt Q9BRS2)", "details": "compound 10.0 µM"}, "RIPK1 (human)": {"biological_target": "RIPK1 (human) (UniProt Q13546)", "details": "compound 10.0 µM"}, "RPS6KA1 KD2 (human)": {"biological_target": "RPS6KA1 KD2 (human) (UniProt Q15418)", "details": "compound 10.0 µM"}, "RPS6KA4 KD1 (human)": {"biological_target": "RPS6KA4 KD1 (human) (UniProt O75676)", "details": "compound 10.0 µM"}, "RPS6KB1 (human)": {"biological_target": "RPS6KB1 (human) (UniProt P23443)", "details": "compound 10.0 µM"}, "SGK110 (human)": {"biological_target": "SGK110 (human) (UniProt P0C264)", "sequence (P0C264 whole entry, looked up)": "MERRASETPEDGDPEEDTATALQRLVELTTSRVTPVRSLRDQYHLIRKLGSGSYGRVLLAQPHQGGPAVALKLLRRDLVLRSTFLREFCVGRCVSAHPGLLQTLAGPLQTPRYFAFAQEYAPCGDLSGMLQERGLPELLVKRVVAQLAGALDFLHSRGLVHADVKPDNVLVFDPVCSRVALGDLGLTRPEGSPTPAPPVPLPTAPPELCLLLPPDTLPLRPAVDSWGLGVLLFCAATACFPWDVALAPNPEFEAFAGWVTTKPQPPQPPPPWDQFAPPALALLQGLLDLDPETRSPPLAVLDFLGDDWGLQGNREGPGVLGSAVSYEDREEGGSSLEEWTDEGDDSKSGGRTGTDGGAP", "details": "compound 10.0 µM"}, "SIK1 (human)": {"biological_target": "SIK1 (human) (UniProt P57059)", "details": "compound 10.0 µM"}, "STK25 (human)": {"biological_target": "STK25 (human) (UniProt O00506)", "details": "compound 10.0 µM"}, "TLK1 (human)": {"biological_target": "TLK1 (human) (UniProt Q9UKI8)", "details": "compound 10.0 µM"}, "TNNI3K (human)": {"biological_target": "TNNI3K (human) (UniProt Q59H18)", "details": "compound 10.0 µM"}, "TXK (human)": {"biological_target": "TXK (human) (UniProt P42681)", "details": "compound 10.0 µM"}, "YES1 (human)": {"biological_target": "YES1 (human) (UniProt P07947)", "details": "compound 10.0 µM"}},
  "note": "pKd: −log10 of the molar value.",
  "data": [
    {"smiles": "Cc1ccc(NC(=O)c2ccc(NC(=O)/C=C/CN(C)C)cc2)cc1Nc1nccc(-c2cccnc2)n1", "values": [
      {"measurement": "kinase still bound, per cent of control", "setting": "[1]", "result": 39, "unit": "%"},
      {"measurement": "kinase still bound, per cent of control", "setting": "ADCK4 (human)", "result": 60, "unit": "%"},
      {"measurement": "kinase still bound, per cent of control", "setting": "CAMK4 (human)", "result": 100, "unit": "%"},
      {"measurement": "kinase still bound, per cent of control", "setting": "CDC42BPA (human)", "result": 83, "unit": "%"},
      {"measurement": "kinase still bound, per cent of control", "setting": "CDK11B (human)", "result": 100, "unit": "%"},
      {"measurement": "kinase still bound, per cent of control", "setting": "CDK18 (human)", "result": 85, "unit": "%"},
      {"measurement": "kinase still bound, per cent of control", "setting": "CDK2 (human)", "result": 95, "unit": "%"},
      {"measurement": "kinase still bound, per cent of control", "setting": "CHEK1 (human)", "result": 100, "unit": "%"},
      {"measurement": "kinase still bound, per cent of control", "setting": "CSNK1A1L (human)", "result": 100, "unit": "%"},
      {"measurement": "kinase still bound, per cent of control", "setting": "CSNK1D (human)", "result": 54, "unit": "%"},
      {"measurement": "kinase still bound, per cent of control", "setting": "DAPK1 (human)", "result": 72, "unit": "%"},
      {"measurement": "kinase still bound, per cent of control", "setting": "[2]", "result": 61, "unit": "%"},
      {"measurement": "kinase still bound, per cent of control", "setting": "HUNK (human)", "result": 25, "unit": "%"},
      {"measurement": "kinase still bound, per cent of control", "setting": "IKBKB (human)", "result": 70, "unit": "%"},
      {"measurement": "kinase still bound, per cent of control", "setting": "INSR (human)", "result": 93, "unit": "%"},
      {"measurement": "kinase still bound, per cent of control", "setting": "IRAK1 (human)", "result": 13, "unit": "%"},
      {"measurement": "kinase still bound, per cent of control", "setting": "MAP3K10 (human)", "result": 100, "unit": "%"},
      {"measurement": "kinase still bound, per cent of control", "setting": "MAP3K2 (human)", "result": 84, "unit": "%"},
      {"measurement": "kinase still bound, per cent of control", "setting": "MAP4K2 (human)", "result": 81, "unit": "%"},
      {"measurement": "pKd", "setting": "MAPK9 (human)", "result": 6.80},
      {"measurement": "kinase still bound, per cent of control", "setting": "MAPK9 (human); compound 10.0 µM", "result": 1.1, "unit": "%"},
      {"measurement": "kinase still bound, per cent of control", "setting": "MAPKAPK5 (human)", "result": 74, "unit": "%"},
      {"measurement": "kinase still bound, per cent of control", "setting": "MAST1 (human)", "result": 89, "unit": "%"},
      {"measurement": "kinase still bound, per cent of control", "setting": "MINK1 (human)", "result": 64, "unit": "%"},
      {"measurement": "kinase still bound, per cent of control", "setting": "MYO3B (human)", "result": 100, "unit": "%"},
      {"measurement": "kinase still bound, per cent of control", "setting": "NEK2 (human)", "result": 100, "unit": "%"},
      {"measurement": "kinase still bound, per cent of control", "setting": "PDPK1 (human)", "result": 100, "unit": "%"},
      {"measurement": "kinase still bound, per cent of control", "setting": "[3]", "result": 72, "unit": "%"},
      {"measurement": "kinase still bound, per cent of control", "setting": "[4]", "result": 100, "unit": "%"},
      {"measurement": "kinase still bound, per cent of control", "setting": "PKMYT1 (human)", "result": 79, "unit": "%"},
      {"measurement": "kinase still bound, per cent of control", "setting": "PLK4 (human)", "result": 41, "unit": "%"},
      {"measurement": "kinase still bound, per cent of control", "setting": "RIOK1 (human)", "result": 34, "unit": "%"},
      {"measurement": "kinase still bound, per cent of control", "setting": "RIPK1 (human)", "result": 56, "unit": "%"},
      {"measurement": "kinase still bound, per cent of control", "setting": "RPS6KA1 KD2 (human)", "result": 77, "unit": "%"},
      {"measurement": "kinase still bound, per cent of control", "setting": "RPS6KA4 KD1 (human)", "result": 100, "unit": "%"},
      {"measurement": "kinase still bound, per cent of control", "setting": "RPS6KB1 (human)", "result": 100, "unit": "%"},
      {"measurement": "kinase still bound, per cent of control", "setting": "SGK110 (human)", "result": 85, "unit": "%"},
      {"measurement": "kinase still bound, per cent of control", "setting": "SIK1 (human)", "result": 100, "unit": "%"},
      {"measurement": "kinase still bound, per cent of control", "setting": "STK25 (human)", "result": 100, "unit": "%"},
      {"measurement": "kinase still bound, per cent of control", "setting": "TLK1 (human)", "result": 74, "unit": "%"},
      {"measurement": "kinase still bound, per cent of control", "setting": "TNNI3K (human)", "result": 100, "unit": "%"},
      {"measurement": "kinase still bound, per cent of control", "setting": "TXK (human)", "result": 94, "unit": "%"},
      {"measurement": "kinase still bound, per cent of control", "setting": "YES1 (human)", "result": 100, "unit": "%"}
    ]}
  ]
}
